In test [1] the test system is K562 chronic myelogenous leukemia cells. Kind of test: MTT assay, in vitro inhibitory activity on cells. In kind it is cell-based. Particulars: Homo sapiens, K562, 48 h, typically 48 hours. The source says: (§1) In this example, MTT assay was used to detect in vitro inhibitory activity of the compounds prepared according to the above examples on the cells. […] AP24534 was purchased from Shanghai Xinkuo Chemical Technology Co., Ltd., China.
(§2) Dimethyl sulfoxide (DMSO) is capable of dissolving formazan in cells, and absorbance value can be measured at a wavelength of 490 nm by an enzyme-linked immunometric meter, which reflects the number of living cells. Within a certain range of the number of cells, the amount of MTT crystals formed is proportional to the number of living cells.
(§3) 1. […] 2. Culturing in a 37° C., 5% CO2 incubator and keeping the cells adhering to the wall of the well. 3. […] 4. Carefully removing the supernatant, gently washing with PBS and discarding the supernatant again. 5. […] 6. Terminating culturing and carefully discarding the medium in each well. 7. Adding 150 μl dimethyl sulfoxide into each well, shaking for 10 minutes at low speed in a shaker, to make crystals fully dissolved. 8. Measuring the absorbance of each well at 490 nm by an enzyme-linked immunometric meter. 9. Calculating IC50 values.

Test [2] concerns MEG-01 human megakaryocyte leukemia cells. Kind of test: CellTiter-Glo cell viability assay on Bcr-Abl-positive cells. The test is classed as cell-based. Particulars: 72 hours. The procedure: Each compound was dissolved in DMSO to 10 mM, diluted to 50 μM with complete medium, and then diluted to 10 μM with 0.1% DMSO in complete medium. The resulting solution was 10-fold serially diluted and formulated into 10 concentrations.
MEG-01 human megakaryocyte leukemia cells and KU812 human peripheral blood basophilic leukocytes, purchased from ATCC Company, USA.
6) Calculating cell viability (Cell Viability)=(RLUsample/RLUnegative)×100%, wherein RLUsample was RLU (Relative Light Units) value of the well added with the compound and RLUnegative was RLU value of the well without the compound (that is, cell control, which was treated with the same concentration of DMSO). Data were processed by using a four-parameter logistic fitting module in Graphpad Prism 4.0 software to calculate IC50.

The target of test [3] is T1, Human ABL1 (T315I) (Homo sapiens, UniProt P00519, T315I).
T1 construct: purchased Millipore Corporation, USA #14-522
Kind of test: ABL1 (T315I) kinase activity, [γ-33P] ATP / Abltide radiometric assay. In kind it is biochemical. To be noted: ATP 1.0 μM, 120 minutes, room temperature. On the procedure:
Kinase activity was determined according to the manufacturer's instructions. Peptide substrate is Abltide ([…]), purchased from Millipore Corporation, USA. Ion exchange chromatography paper P81 was purchased from Whatman Company, UK. [γ-33P] ATP was purchased from Perkin Elmer Company.
[γ-33P] ATP was added at room temperature, with final concentration of 1.0 μM, and the reaction was performed for 120 minutes. 20 μl aliquots were transferred onto the ion exchange chromatography paper P81. The paper was thoroughly washed with a 0.75% phosphoric acid solution three times, and then washed with acetone once. Finally, γ-33P radioactivity was measured.

In test [4] the test system is KU812 human peripheral blood basophilic leukocytes. Kind of test: CellTiter-Glo cell viability assay on Bcr-Abl-positive cells. To be noted: KU812, 72 h, read-out: IC50 KU812.
In test [5] the test system is Saos-2 human osteosarcoma cells. Kind of test: MTT assay, in vitro inhibitory activity on cells. The test is classed as cell-based. To be noted: typically 48 hours.
Source text: as §1, §2, §3

For test [6], the system named is MDA-MB-231 human breast cancer cells. Kind of test: MTT assay, in vitro inhibitory activity on cells. In kind it is cell-based. To be noted: typically 48 hours.
Source text: as §1, §2, §3

For test [7], the system named is Ovcar-3 human ovarian cancer cells. Kind of test: MTT assay, in vitro inhibitory activity on cells. To be noted: typically 48 hours. In kind it is cell-based.
Source text: as §1, §2, §3

The values that follow come from patent US20150152088A1, “ALKYNYL HETEROAROMATIC COMPOUND AND USE THEREOF” (Nanjing Sanhome Pharmaceutical Co., Ltd., priority 2012, published 2015).

Molecules are shown by their SMILES.

Consider `Cc1ccc(C(=O)Nc2ccc(CN3CCN(C)CC3)c(C(F)(F)F)c2)cc1C#Cc1ccc2c(=O)[nH]cnc2c1` [Example 9, 3-((4-oxo-3,4-dihydroquinazolin-7-yl)ethynyl)-4-methyl-N-[4-((4-methylpiperazin-1-yl)methyl)-3-trifluoromethylphenyl]benzamide], for which the concentration for half-maximal inhibition (IC50) in test [1] was 5340 nM; in test [2], 1.49 nM; in test [3], 5.8 nM; in test [4], 0.518 nM.

Regarding `Cc1ccc(C(=O)Nc2ccc(CN3CCN(C)CC3)c(C(F)(F)F)c2)cc1C#Cc1ccc2c(N)ncnc2c1` [Example 13, 3-((4-aminoquinazolin-7-yl)ethynyl)-4-methyl-N-[4-((4-methylpiperazin-1-yl)methyl)-3-trifluoromethylphenyl]benzamide], the IC50 was 4120 nM in test [1], 3.56 nM in test [2], 9.5 nM in test [3] and 1.17 nM in test [4].

As for `Cc1ccc(C(=O)Nc2ccc(CN3CCN(C)CC3)c(C(F)(F)F)c2)cc1C#Cc1ccc2cnc(N)nc2c1` [Example 11, 3-((2-aminoquinazolin-7-yl)ethynyl)-4-methyl-N-[4-((4-methylpiperazin-1-yl)methyl)-3-trifluoromethylphenyl]benzamide], the IC50 in test [5] was found to be 1790 nM; in test [1] it was 900 nM; in test [6] it was 2790 nM; in test [7] it was 4720 nM.

On to `Cc1ccc(C(=O)Nc2ccc(CN3CCN(C)CC3)c(C(F)(F)F)c2)cc1C#Cc1cc(F)c2cnc(N)nc2c1` [Example 5, 3-((5-fluoro-2-aminoquinazolin-7-yl)ethynyl)-4-methyl-N-[4-((4-methylpiperazin-1-yl)methyl)-3-trifluoromethylphenyl]benzamide], for which the half-inhibitory concentration (IC50) was determined as 310 nM in test [5], 2120 nM in test [1], 6710 nM in test [6] and 6520 nM in test [7].

For `Cc1ccc(C(=O)Nc2ccc(CN3CCN(C)CC3)c(C(F)(F)F)c2)cc1C#Cc1ccc2cncnc2c1` [Example 3, 3-((quinazolin-7-yl)ethynyl)4-methyl-N-[4-((4-methylpiperazin-1-yl)methyl)-3-trifluoromethylphenyl]benzamide], the IC50 in test [5] worked out at 1070 nM; in test [1], 1340 nM; in test [6], 2450 nM; in test [7] it was 4470 nM; in test [3], 4.51 nM.

Regarding `Cc1ccc(C(=O)Nc2ccc(CN3CCN(C)CC3)c(C(F)(F)F)c2)cc1C#Cc1cccc2ncncc12` [Example 4, 3-((quinazolin-5-yl)ethynyl)-4-methyl-N-[4-((4-methylpiperazin-1-yl)methyl)-3-trifluoromethylphenyl]benzamide], the IC50 came out at 1590 nM in test [5]; 2440 nM in test [1]; 1300 nM in test [6]; 6230 nM in test [7]; 2.3 nM in test [3].
